Experimental data from the supplement of paper PMC11451515.

Test system: NOMO1
Experiment: cell viability relative to DMSO control; higher = less cytotoxic
Settings: 48 h
In short: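 Leukemia cells (NOMO1 or SEM, 500 cells/well; P12-Ichikawa, 1000 cells/well) were seeded in 5 μl in 1536-well plates after at least four passages of adaptation to each medium. They received library compounds in DMSO by pin dosing, 11 threefold points from 47 μM to 0.79 nM. Luminescence with CellTiter-Glo One was read after 48 h at 37°C. Viability is stated per plate relative to DMSO wells, with cell-free wells as background.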

[1] = HPLM + 10% dialyzed FBS, 0.000781 µM
[2] = HPLM + 10% dialyzed FBS, 0.00234 µM
[3] = HPLM + 10% dialyzed FBS, 0.00702 µM
[4] = HPLM + 10% dialyzed FBS, 0.0211 µM
[5] = HPLM + 10% dialyzed FBS, 0.0632 µM
[6] = HPLM + 10% dialyzed FBS, 0.19 µM
[7] = HPLM + 10% dialyzed FBS, 0.569 µM
[8] = HPLM + 10% dialyzed FBS, 1.71 µM
[9] = HPLM + 10% dialyzed FBS, 5.12 µM
[10] = HPLM + 10% dialyzed FBS, 15.4 µM
[11] = HPLM + 10% dialyzed FBS, 46.1 µM
[12] = RPMI 5 mM glucose + 10% FBS, 0.000781 µM
[13] = RPMI 5 mM glucose + 10% FBS, 0.00234 µM
[14] = RPMI 5 mM glucose + 10% FBS, 0.00702 µM
[15] = RPMI 5 mM glucose + 10% FBS, 0.0211 µM
[16] = RPMI 5 mM glucose + 10% FBS, 0.0632 µM
[17] = RPMI 5 mM glucose + 10% FBS, 0.19 µM
[18] = RPMI 5 mM glucose + 10% FBS, 0.569 µM
[19] = RPMI 5 mM glucose + 10% FBS, 1.71 µM
[20] = RPMI 5 mM glucose + 10% FBS, 5.12 µM
[21] = RPMI 5 mM glucose + 10% FBS, 15.4 µM
[22] = RPMI 5 mM glucose + 10% FBS, 46.1 µM
[23] = RPMI 5 mM glucose + 10% dialyzed FBS, 0.000781 µM
[24] = RPMI 5 mM glucose + 10% dialyzed FBS, 0.00234 µM
[25] = RPMI 5 mM glucose + 10% dialyzed FBS, 0.00702 µM
[26] = RPMI 5 mM glucose + 10% dialyzed FBS, 0.0211 µM
[27] = RPMI 5 mM glucose + 10% dialyzed FBS, 0.0632 µM
[28] = RPMI 5 mM glucose + 10% dialyzed FBS, 0.19 µM
[29] = RPMI 5 mM glucose + 10% dialyzed FBS, 0.569 µM
[30] = RPMI 5 mM glucose + 10% dialyzed FBS, 1.71 µM
[31] = RPMI 5 mM glucose + 10% dialyzed FBS, 5.12 µM
[32] = RPMI 5 mM glucose + 10% dialyzed FBS, 15.4 µM
[33] = RPMI 5 mM glucose + 10% dialyzed FBS, 46.1 µM

| SMILES | cell viability [1] | cell viability [2] | cell viability [3] | cell viability [4] | cell viability [5] | cell viability [6] | cell viability [7] | cell viability [8] | cell viability [9] | cell viability [10] | cell viability [11] | cell viability [12] | cell viability [13] | cell viability [14] | cell viability [15] | cell viability [16] | cell viability [17] | cell viability [18] | cell viability [19] | cell viability [20] | cell viability [21] | cell viability [22] | cell viability [23] | cell viability [24] | cell viability [25] | cell viability [26] | cell viability [27] | cell viability [28] | cell viability [29] | cell viability [30] | cell viability [31] | cell viability [32] | cell viability [33] |
| --- | --- | --- | --- | --- | --- | --- | --- | --- | --- | --- | --- | --- | --- | --- | --- | --- | --- | --- | --- | --- | --- | --- | --- | --- | --- | --- | --- | --- | --- | --- | --- | --- | --- |
| C/C=C(/C)C(=O)O[C@H]1C(C)=C2[C@H]([C@@H]1OC(=O)CCCCCCC)[C@@](C)(OC(C)=O)C[C@H](OC(=O)CCC)[C@@]1(O)[C@H]2OC(=O)[C@@]1(C)O | 100% | 110% | 99.4% | 127% | 56.6% | 12.5% | 7.29% | 4.31% | 2.9% | 2.91% | 5% | 112% | 112% | 130% | 119% | 92.7% | 17% | 9.53% | 10.4% | 6.41% | 3.83% | 5.08% | 117% | 121% | 129% | 123% | 68% | 13.4% | 8.71% | 10.1% | 7.55% | 5.66% | 5.67% |
| Nc1ccccc1NC(=O)c1ccc(CNC(=O)OCc2cccnc2)cc1 | 103% | 127% | 111% | 108% | 118% | 110% | 81.1% | 47% | 22.9% | 12.7% | 3.22% | 103% | 92.5% | 103% | 99% | 108% | 103% | 88.7% | 58.6% | 33.9% | 10.7% | 3.59% | 115% | 107% | 110% | 115% | 123% | 97.3% | 94.2% | 53.9% | 24.7% | 9.54% | 2.99% |
| CC(C)[C@@H](N(CCCN)C(=O)C1=CC=C(C)C=C1)C/2=N/C3=CC(=CC=C3C(=O)N2CC4=CC=CC=C4)Cl | 88.4% | 25.4% | 29.7% | 21.4% | 20.8% | 27.1% | 28% | 24.4% | 20% | 15.8% | 11.4% | 81.9% | 16% | 16.1% | 17.8% | 16.9% | 15.3% | 15.3% | 14.3% | 9.97% | 9.55% | 7.35% | 78.1% | 24% | 24.8% | 21.9% | 22.9% | 24.4% | 18.7% | 15.8% | 11.7% | 16.3% | 11.1% |
| CO[C@H]1/C=C/O[C@@]2(C)Oc3c(C)c(O)c4c(O)c(c5c(nc6cc(C)ccn65)c4c3C2=O)NC(=O)/C(C)=C\C=C\[C@H](C)[C@H](O)[C@@H](C)[C@@H](O)[C@@H](C)[C@H](OC(C)=O)[C@@H]1C | 104% | 119% | 112% | 96.1% | 116% | 110% | 96% | 93.8% | 35.5% | 91.7% | 11.1% | 107% | 99.1% | 97.7% | 110% | 82.7% | 105% | 87.6% | 98.7% | 43.8% | 91.4% | 44.9% | 99.4% | 97.8% | 95.3% | 108% | 86.3% | 108% | 99.9% | 99.7% | 28.9% | 82.3% | 18.6% |
| COc1c(C)cnc(Cn2cnc3c(Cl)nc(N)nc32)c1C | 108% | 112% | 138% | 120% | 151% | 129% | 80.8% | 36.7% | 19.8% | 18.2% | 14.3% | 117% | 112% | 115% | 139% | 129% | 119% | 91.7% | 26.5% | 18.6% | 14.3% | 15.7% | 119% | 122% | 121% | 132% | 128% | 101% | 90.1% | 34.9% | 18.2% | 18% | 20.2% |
| CC/1=C/C(=O)N(O)/C(=C1)C2CCCCC2 | 110% | 117% | 135% | 146% | 143% | 145% | 140% | 136% | 139% | 79% | 39.8% |  |  |  |  |  |  |  |  |  |  |  |  |  |  |  |  |  |  |  |  |  |  |
| [NH2][Pt]1([NH2])[O]CC(=O)[O]1 | 96.9% | 109% | 98% | 101% | 96% | 108% | 97.8% | 106% | 85.9% | 91.3% | 88.3% | 94.5% | 83% | 99.1% | 85.2% | 82.4% | 93.8% | 98.7% | 92.9% | 93.8% | 80.5% | 84.3% | 92.7% | 86.9% | 90.7% | 98.1% | 93.2% | 89.1% | 87.8% | 92.5% | 83.9% | 77.8% | 104% |
| Cc1cn2c(-c3cn[nH]c3)cnc2c(Nc2ccc(C(=O)N3CCNCC3)cc2F)n1 | 109% | 102% | 114% | 107% | 96.5% | 100% | 112% | 82.7% | 91.2% | 70% | 34% | 105% | 91.6% | 101% | 88% | 88.3% | 88% | 89.2% | 85.3% | 86.2% | 78.7% | 36.1% | 89.2% | 93% | 93.8% | 98.1% | 88.7% | 98.8% | 92.5% | 93.1% | 80.5% | 62.5% | 29.9% |
